Laboratory results published in US6726928B2, “Process for preparing solid dosage forms for unpalatable pharmaceuticals” (R.P. Scherer Technologies, Inc., priority 1994, dated 2004).

Assay: pH dependence of Piroxicam solubility
Type: physicochemical
Text: The solubility of weak acids and weak bases may be adjusted by pH control. Increasing the pH of a solution can decrease solubility of a weak base, whereas the solubility of a weak acid can be […] by a pH decrease. The relative levels of weak acid or weak base added to the drug can be calculated with the knowledge of the Henderson-Hasselbalch equation, and by calculation of the pKa of the drug concerned in the solvent in question. […] Piroxicam ([…]) has a “U”-shaped pH solubility curve with a minimum around pH 3.5. […] A further advantage arising out of the reduced solubility of Piroxicam is reduced formation of the hydrate which has a bright yellow color.

With `CN1C(C(=O)Nc2ccccn2)=C(O)c2ccccc2S1(=O)=O` [Piroxicam] the “pH of minimum of the U-shaped pH solubility curve” value was roughly 3.5 and the “change in solubility on pH adjustment” value (pH adjusted from about 6.5 to approximately 4.0 by addition of an acid such as citric acid) was “approximately tenfold decrease in solubility”.
